Data published in patent publication EP4310093A1, “AMINO ACID DERIVATIVE, PREPARATION METHOD THEREFOR, AND PHARMACEUTICAL COMPOSITION FOR TREATING HEPATITIS, COMPRISING SAME” (priority 2021, dated 2022).

Experiments:
HBV [1] = experiment: Inhibition of intracellular HBV virus invasion, Southern blot analysis; type: cell-based; conditions: for amount of HBeAg DNA detected compared to the negative control group (Mock): 20 µM, HepG2-NTCP cell line, HBV 3000 Geq/cell; for activity at 20 µM: Hepatitis B virus, read-out: relative replication rate of quantified HBeAg DNA to the negative control group (Mock), 20 µM, HepG2-NTCP cell line, HBV 3000 Geq/cell
Method: (§1) In order to evaluate the ability to inhibit intracellular HBV virus entry (invasion), Enzyme-linked immunosorbent assay (ELISA) analysis to measure HBeAg, which is associated with high infectivity as an antigen in the HBV virus core portion, and Southern blot analysis to measure DNA of HBV were performed.
(§2) Specifically, the HepG2-NTCP cell line was cultured on a 6-well plate, incubation was performed overnight, HBV inhibitors were treated at a concentration of 20 µM, and the positive control Myrcludex-B (MyrB) was treated at a concentration of 200 nM, followed by culture for 24 hours. After HBV infection into the cells to make HBV 3000 genome equivalent per ml/cell (Geq/cell), the cell culture medium was replaced (medium changing, MC) a day after the viral infection to remove the virus unattached to cell membranes. In order to measure an amount of virus that entered the cell, medium changing (MC) was performed once more 4 days after viral infection. 2 days after replacement, HBeAg ELISA analysis was performed using a supernatant, and Southern blot analysis was performed with cell pellets.
For the cell pellet obtained by the method of Experimental Example 4-1, Southern blot analysis for measurement of […] DNA was performed using Example 1 (LCA-Ile), Example 44 (LCA-Val), Example 52 (LCA-Tyr), Example 51 (LCA-Ser), Example 55 (LCA-Glu), Example 2 (UDCA-Ile), Example 3 (UDCA-Val), Example 25 (LCA-Val-Trp), Example 10 (DCA-Ile), Comparative Example 1 (LCA), and Comparative Example 2 (UDCA).
First, the cell pellets were pipetted with 100 µl of HEPES lysis buffer (10 mM HEPES, 100 mM NaCl, 1 mM EDTA, 1% NP-40), placed on ice for 20 minutes, and then centrifuged with a centrifuge under the conditions at 4°C and 13000 rpm. After transferring the supernatant only to the new microtube, 4.5 µl of nuclease buffer I (10 mM CaCl2, 12 mM MgCl2, DNase 10 units) was added to carry out a reaction at 37°C for 2 hours, and 40 µl of 26% PEG solution was added, followed by a reaction on ice for 1 hour. After centrifuging with the centrifuge at 4°C and 13000 rpm for 30 minutes, and the supernatant was removed cleanly. After releasing the pellets with 100 µl of nuclease buffer II (10 mM Tris, 8 mM CaCl2, 6mM MgCl2), 287.5 µl of 0.5% SDS buffer (25 mM Tris, 10 mM EDTA, 0.5% SDS, 100 mM NaCl) was added, and 12.5 µl of 20 mg/ml proteinase K was added, followed by a reaction at 37°C for 2 hours. 400 µl of phenol-chloroform-isoamyl alcohol was added, centrifugation was performed at room temperature at 13000 rpm after voltexing, the supernatant was transferred to a new tube, 40 µl of 3 M NaOAc was added, and 800 µl of 100% ethanol was added for inverting, followed by a reaction overnight at -20°C. After performing centrifugation at 4°C and 13000 rpm for 30 minutes, 800 µl of 70% ethanol was added and mixed to the pellet obtained by removing the supernatant, centrifugation was performed at 4°C and 13000 rpm for 10 minutes, and then the supernatant was discarded. The ethanol was dried for 5 minutes to leave only the HBV DNA pellets, and then the pellets were dissolved again in 15 µl of TE buffer (10 mM Tris, 1 mM EDTA). HBV DNA samples were loaded in 1% agarose gel, and electrophoresis was performed. It was then immersed in denature buffer (0.25 N NaOH, 1 M NaCl) for 30 minutes to denature dsDNA of HBV into ssDNA. The DNA in the gel was transferred to a Nylon membrane using a transfer buffer (0.4 M NaOH), the membrane was soaked with a 2X SSC buffer (sigma, cat# 85639) for neutralization, followed by drying in air. The membrane was immersed in a church buffer (10% BSA, 0.5 M EDTA, 1 M NaPi, 20% SDS), and the radioisotopes were hybridized using a Mega prime kit (GE healthcare, RPN1607). After washing three times with washing buffer (2X SSC, 0.1% SDS), measurement was performed using radioisotope measurement equipment, and a relative replication rate (%) to the negative control group (Mock) was calculated and shown.

HBV [2] = experiment: Inhibition of intracellular HBV virus invasion, HBeAg ELISA analysis; type: cell-based; conditions: 20 µM, HepG2-NTCP cell line, HBV 3000 Geq/cell, O.D. at 450 nm
Method: as §1, §2
HBeAg ELISA analysis was performed using an HBeAg ELISA kit (sanbio, Wantai HBeAg ELISA, cat#WB-2496) for the supernatant obtained by the method in Experimental Example 4-1.
First, a negative control group (Mock), positive control group (MyrB), and samples according to the present disclosure were loaded, by 50 µl each to be triplicate, onto a 96-well plate coated with capture Ab. In this case, Example 1 (LCA-ILE), Example 44 (LCA-Val), Example 52 (LCA-Tyr), Example 51 (LCA-Ser), Example 55 (LCA-Glu), Example 2 (UDCA-Ile), Example 3 (UDCA-Val), Example 25 (LCA-Val-Trp), Example 10 (DCA-Ile), Comparative Example 1 (LCA), and Comparative Example 2 (UDCA) were used as the sample.
The HRP-conjugated detection antibody was loaded into each well by 50 µl, followed by a reaction at 37°C for 30 minutes. Washing buffer (1X PBS, 0.5% Tween20) was added by 200 µl, and washing was performed 5 times. 50 µl of chromogen solution A and 50 µl of chromogen solution B were added to each well, and a reaction was carried out in the darkness at 37°C for 15 minutes. The stop solution was added to each well by 50 µl each to stop the reaction, and the amount of HBeAg was measured by measuring the absorbance (optical density, O.D.) level in the 450 nm wavelength band.

With C[C@H](CCC(=O)N[C@@H](CCC(=O)O)C(=O)O)[C@H]1CC[C@H]2[C@@H]3CC[C@@H]4C[C@H](O)CC[C@]4(C)[C@H]3CC[C@]12C [Example 55, (S)-2-((R)-4-((3R,5R,8R,9S,10S,13R,14S,17R)-3-hydroxy-10,13-dimethyl-hexadecahydro-1H-cyclopenta[a]phenanthren-17-yl)pentanamido)pentanedioic acid] the “amount of HBeAg DNA detected compared to the negative control group (Mock)” value (HBV [1]) was “relatively less amount”.
CC(C)[C@H](NC(=O)CC[C@@H](C)[C@H]1CC[C@H]2[C@@H]3CC[C@@H]4C[C@H](O)CC[C@]4(C)[C@H]3CC[C@]12C)C(=O)O [Example 44, (S)-2-((R)-4-((3R,5R,8R,9S,10S,13R,14S,17R)-3-hydroxy-10,13-dimethyl-hexadecahydro-1H-cyclopenta[a]phenanthren-17-yl)pentanamido)-3-methylbutanoic acid] was tested, and the “HBeAg absorbance level compared with Comparative Example 1 (LCA) and Comparative Example 2 (UDCA)” value (HBV [2]) was “lower”, the “HBeAg absorbance level compared with the negative control group (Mock)” value (HBV [2]) was “relatively lower” and the “amount of HBeAg DNA detected compared to the negative control group (Mock)” value (HBV [1]) was “relatively less amount”. The activity at 20 µM (HBV [1]) was under 80%.
In the case of C[C@H](CCC(=O)N[C@@H](Cc1ccc(O)cc1)C(=O)O)[C@H]1CC[C@H]2[C@@H]3CC[C@@H]4C[C@H](O)CC[C@]4(C)[C@H]3CC[C@]12C [Example 52, (S)-2-((R)-4-((3R,5R,8R,9S,10S,13R,14S,17R)-3-hydroxy-10,13-dimethyl-hexadecahydro-1H-cyclopenta[a]phenanthren-17-yl)pentanamido)-3-(4-hydroxyphenyl)propanoic acid], the “amount of HBeAg DNA detected compared to the negative control group (Mock)” value (HBV [1]) is reported as “relatively less amount” and the activity at 20 µM (HBV [1]) is reported as under 80%.
For CC[C@@H](C)[C@H](NC(=O)CC[C@@H](C)[C@H]1CC[C@H]2[C@@H]3CC[C@@H]4C[C@H](O)CC[C@]4(C)[C@H]3C[C@H](O)[C@]12C)C(=O)O [Example 10, (2S,3R)-2-((R)-4-((3R,5R,8R,9S,10S,12S,13R,14S,17R)-3,12-dihydroxy-10,13-dimethyl-hexadecahydro-1H-cyclopenta[a]phenanthren-17-yl)pentanamido)-3-methylpentanoic acid], the “HBeAg absorbance level compared with Comparative Example 1 (LCA) and Comparative Example 2 (UDCA)” value (HBV [2]) was “lower”, the “HBeAg absorbance level compared with the negative control group (Mock)” value (HBV [2]) was “relatively lower” and the “amount of HBeAg DNA detected compared to the negative control group (Mock)” value (HBV [1]) was “relatively less amount”. For the same compound, the activity at 20 µM (HBV [1]) was under 80%.
C[C@H](CCC(=O)N[C@@H](CO)C(=O)O)[C@H]1CC[C@H]2[C@@H]3CC[C@@H]4C[C@H](O)CC[C@]4(C)[C@H]3CC[C@]12C [Example 51, (S)-3-hydroxy-2-((R)-4-((3R,5R,8R,9S,10S,13R,14S,17R)-3-hydroxy-10,13-dimethyl-hexadecahydro-1H-cyclopenta[a]phenanthren-17-yl)pentanamido)propanoic acid] was tested, and the “HBeAg absorbance level compared with the negative control group (Mock)” value (HBV [2]) was “relatively lower”.
CC(C)[C@H](NC(=O)CC[C@@H](C)[C@H]1CC[C@H]2[C@@H]3CC[C@@H]4C[C@H](O)CC[C@]4(C)[C@H]3CC[C@]12C)C(=O)N[C@@H](Cc1c[nH]c2ccccc12)C(=O)O [Example 25, (S)-2-((S)-2-((R)-4-((3R,5R,8R,9S,10S,13R,14S,17R)-3-hydroxy-10,13-dimethyl-hexadecahydro-1H-cyclopenta[a]phenanthren-17-yl)pentanamido)-3-methylbutanamido)-3-(1H-indol-3-yl)propanoic acid] was tested, and the “amount of HBeAg DNA detected compared to the negative control group (Mock)” value (HBV [1]) was “relatively less amount”.
In the case of CC[C@@H](C)[C@H](NC(=O)CC[C@@H](C)[C@H]1CC[C@H]2[C@@H]3[C@@H](O)C[C@@H]4C[C@H](O)CC[C@]4(C)[C@H]3CC[C@]12C)C(=O)O [Example 2, (2S,3R)-2-((R)-4-((3R,5S,7S,8R,9S,10S,13R,14S,17R)-3,7-dihydroxy-10,13-dimethyl-hexadecahydro-1H-cyclopenta[a]phenanthren-17-yl)pentanamido)-3-methylpentanoic acid], the “HBeAg absorbance level compared with Comparative Example 1 (LCA) and Comparative Example 2 (UDCA)” value (HBV [2]) is reported as “lower”, the “HBeAg absorbance level compared with the negative control group (Mock)” value (HBV [2]) is reported as “relatively lower” and the “amount of HBeAg DNA detected compared to the negative control group (Mock)” value (HBV [1]) is reported as “relatively less amount”. For the same compound, the activity at 20 µM (HBV [1]) was under 80%.
In the case of CC(C)[C@H](NC(=O)CC[C@@H](C)[C@H]1CC[C@H]2[C@@H]3[C@@H](O)C[C@@H]4C[C@H](O)CC[C@]4(C)[C@H]3CC[C@]12C)C(=O)O [Example 3, (S)-2-((R)-4-((3R,5S,7S,8R,9S,10S,13R,14S,17R)-3,7-dihydroxy-10,13-dimethyl-hexadecahydro-1H-cyclopenta[a]phenanthren-17-yl)pentanamido)-3-methylbutanoic acid], the “HBeAg absorbance level compared with Comparative Example 1 (LCA) and Comparative Example 2 (UDCA)” value (HBV [2]) is reported as “lower”, the “HBeAg absorbance level compared with the negative control group (Mock)” value (HBV [2]) is reported as “relatively lower” and the “amount of HBeAg DNA detected compared to the negative control group (Mock)” value (HBV [1]) is reported as “relatively less amount”. It also gave an activity at 20 µM (HBV [1]) of under 80%.
